Tests used:
Assay in all cases: relative viability (nuclei count vs DMSO), 5 days (fraction); higher = more cells survive
Carboplatin + Vorinostat = compound: C1CC(C1)(C(=O)O)C(=O)O.[NH2-].[NH2-].[Pt+2] [Carboplatin] + O=C(CCCCCCC(=O)Nc1ccccc1)NO [Vorinostat] (partner 1 µM)
How it was run: (§1)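 One day after seeding in 1536-well plates, lung cancer cell lines were dosed by pin tool. Dosing was either single-drug or a fixed anchor-drug dose plus five library-drug doses (not always all listed) in √10 steps. After 5 days, nuclei were stained in one fix-and-stain step and counted on 4× images, and relative viability is the nuclei count of treated wells over that of vehicle wells, given as the median of duplicate plates.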

Carboplatin + Tozasertib = compound: C1CC(C1)(C(=O)O)C(=O)O.[NH2-].[NH2-].[Pt+2] [Carboplatin] + Cc1cc(Nc2cc(N3CCN(C)CC3)nc(Sc3ccc(NC(=O)C4CC4)cc3)n2)n[nH]1 [Tozasertib] (partner 0.1 µM)
How it was run: as §1

GSK126 + Linsitinib = compound: CC[C@H](C)N1C=C(C2=C(C=C(C=C21)C3=CN=C(C=C3)N4CCNCC4)C(=O)NCC5=C(C=C(NC5=O)C)C)C [GSK126] + C[C@]1(O)C[C@@H](c2nc(-c3ccc4ccc(-c5ccccc5)nc4c3)c3c(N)nccn32)C1 [Linsitinib] (partner 1 µM)
How it was run: as §1

MLN4924 + Phenformin = compound: NS(=O)(=O)OC[C@@H]1C[C@@H](n2ccc3c(N[C@H]4CCc5ccccc54)ncnc32)C[C@@H]1O [MLN4924] + N=C(N)NC(=N)NCCc1ccccc1 [Phenformin] (partner 250 µM)
How it was run: as §1

Row | Cell Line | relative viability (Carboplatin + Vorinostat; first compound 0.08 µM) | relative viability (Carboplatin + Vorinostat; first compound 0.253 µM) | relative viability (Carboplatin + Vorinostat; first compound 0.8 µM) | relative viability (Carboplatin + Vorinostat; first compound 2.53 µM) | relative viability (Carboplatin + Vorinostat; first compound 8 µM) | relative viability (Carboplatin + Tozasertib; first compound 0.08 µM) | relative viability (Carboplatin + Tozasertib; first compound 0.253 µM) | relative viability (Carboplatin + Tozasertib; first compound 0.8 µM) | relative viability (Carboplatin + Tozasertib; first compound 2.53 µM) | relative viability (Carboplatin + Tozasertib; first compound 8 µM) | relative viability (GSK126 + Linsitinib; first compound 0.08 µM) | relative viability (GSK126 + Linsitinib; first compound 0.253 µM) | relative viability (GSK126 + Linsitinib; first compound 0.8 µM) | relative viability (GSK126 + Linsitinib; first compound 2.53 µM) | relative viability (GSK126 + Linsitinib; first compound 8 µM) | relative viability (MLN4924 + Phenformin; first compound 0.04 µM) | relative viability (MLN4924 + Phenformin; first compound 0.1265 µM) | relative viability (MLN4924 + Phenformin; first compound 0.4 µM) | relative viability (MLN4924 + Phenformin; first compound 1.265 µM) | relative viability (MLN4924 + Phenformin; first compound 4 µM)
1 | NCI-H2023 | 0.628 | 0.733 | 0.434 | 0.299 | 0.11 | 0.419 | 0.394 | 0.402 | 0.262 | 0.158 | 0.778 | 0.679 | 0.644 | 0.757 | 0.755 | 0.392 | 0.393 | 0.175 | 0.0707 | 0.0769
2 | NCI-H2085 | 0.803 | 0.764 | 0.839 | 0.761 | 0.711 | 0.899 | 0.875 | 0.727 | 0.902 | 0.788 | 0.903 | 0.774 | 1.02 | 0.89 | 1.02 | 0.754 | 0.676 | 0.598 | 0.443 | 0.348
3 | NCI-H2087 | 0.981 | 1.23 | 0.62 | 0.531 | 0.396 | 0.272 | 0.242 | 0.23 | 0.272 | 0.226 | 0.979 | 0.942 | 0.931 | 0.885 | 0.967 | 0.442 | 0.349 | 0.298 | 0.0782 | 0.0942
4 | NCI-H2126 | 0.804 | 0.894 | 0.832 | 0.823 | 0.856 | 0.971 | 0.915 | 0.882 | 0.828 | 0.732 | 0.759 | 0.732 | 0.725 | 0.721 | 0.713 | 0.566 | 0.566 | 0.432 | 0.321 | 0.304
5 | NCI-H2228 | 0.748 | 0.0948 | 0.623 | 0.566 | 0.343 | 0.276 | 0.252 | 0.246 | 0.225 | 0.209 | 1.11 | 0.681 | 0.755 | 0.708 | 0.542 | 0.327 | 0.38 | 0.194 | 0.134 | 0.146
6 | NCI-H2347 | 0.555 | 0.586 | 0.646 | 0.595 | 0.526 | 0.54 | 0.547 | 0.637 | 0.633 | 0.56 | 1.04 | 0.943 | 0.916 | 0.885 | 0.965 | 0.376 | 0.453 | 0.381 | 0.21 | 0.302
7 | NCI-H2405 | 1.19 | 0.983 | 1.12 | 1.11 | 0.767 | 0.786 | 0.779 | 0.688 | 0.682 | 0.768 | 1.02 | 0.829 | 0.876 | 1 | 0.927 | 0.403 | 0.446 | 0.362 | 0.284 | 0.306
8 | NCI-H3122 | 0.874 | 0.729 | 0.99 | 1.06 | 1 | 0.371 | 0.336 | 0.381 | 0.329 | 0.411 | 1.03 | 0.998 | 0.86 | 1.05 | 1.04 | 0.315 | 0.274 | 0.169 | 0.131 | 0.136
9 | PC-3 [JPC-3] | 1.14 | 0.799 | 0.9 | 0.765 | 0.685 | 0.863 | 0.877 | 0.863 | 0.853 | 0.765 | 1.01 | 0.977 | 0.941 | 0.921 | 0.958 | 0.482 | 0.482 | 0.404 | 0.323 | 0.341
10 | PC-14 | 0.862 | 0.783 | 0.582 | 0.234 | 0.142 | 0.553 | 0.582 | 0.443 | 0.314 | 0.202 | 0.944 | 0.994 | 0.982 | 0.968 | 0.954 | 0.473 | 0.564 | 0.37 | 0.151 | 0.127
11 | RERF-LC-KJ | 0.797 | 0.642 | 0.735 | 0.676 | 0.505 | 0.553 | 0.471 | 0.483 | 0.406 | 0.386 | 0.908 | 0.909 | 0.852 | 0.884 | 0.901 | 0.397 | 0.351 | 0.204 | 0.255 | 0.249
12 | SK-LU-1 | 0.923 | 0.657 | 0.861 | 0.664 | 0.459 | 0.366 | 0.293 | 0.341 | 0.346 | 0.275 | 1.31 | 1.07 | 1.11 | 1.44 | 1.25 | 0.514 | 0.558 | 0.22 | 0.0997 | 0.131
13 | SK-MES-1 | 1.19 | 1.06 | 1.08 | 1.01 | 0.961 | 0.812 | 0.938 | 0.925 | 0.922 | 0.843 | 1.12 | 1.07 | 0.985 | 0.981 | 1.06 | 0.555 | 0.444 | 0.309 | 0.202 | 0.2
14 | SW 1573 | 0.739 | 1.01 | 0.865 | 0.817 | 0.396 | 0.2 | 0.191 | 0.19 | 0.173 | 0.207 | 0.813 | 0.761 | 0.743 | 0.816 | 0.746 | 0.325 | 0.297 | 0.144 | 0.086 | 0.0734
